Results reported in US20040076581A1, “Use of neuropeptide y1 receptor binding compounds in the treatment and diagnosis of cancer” (priority 2000, published 2004).
Entries after “also recorded” stand apart in the source; their conditions may differ.

Legend:
[1] = molecular target: T1, Y1 in human breast carcinoma (Homo sapiens, UniProt P25929); experiment: NPY receptor autoradiography, displacement of 125I-PYY in breast carcinoma sections; assay type: binding; conditions: FIG. 2; increasing concentrations; Y1-expressing breast tumor
T1 construct: Twenty-μm thick cryostat sections of the tissue samples were processed for NPY receptor autoradiography; from tissue; host or cells: human breast carcinoma cryostat sections
T1 sequence (P25929 1-384): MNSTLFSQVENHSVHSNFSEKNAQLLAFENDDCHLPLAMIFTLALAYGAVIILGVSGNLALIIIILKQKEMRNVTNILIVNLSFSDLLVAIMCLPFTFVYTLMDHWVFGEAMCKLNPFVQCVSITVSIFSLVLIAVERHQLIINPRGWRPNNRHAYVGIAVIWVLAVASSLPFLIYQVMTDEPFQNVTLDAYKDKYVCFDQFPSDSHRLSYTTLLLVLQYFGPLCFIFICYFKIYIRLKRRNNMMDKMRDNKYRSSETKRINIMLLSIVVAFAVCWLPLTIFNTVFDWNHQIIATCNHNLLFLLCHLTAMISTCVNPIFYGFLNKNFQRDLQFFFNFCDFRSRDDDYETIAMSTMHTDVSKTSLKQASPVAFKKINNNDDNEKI
Method: For autoradiography, tissue sections were mounted on precleaned microscope slides and stored at −20° C. for at least 3 days to improve adhesion of the tissue to the slide.
(§1) On completion of the incubation, the slides were washed four times for 5 min each in ice-cold preincubation solution, pH 7.4. They were rinsed twice in ice-cold distilled water, and then dried under a stream of cold air at 4° C., apposed to ^3H-Hyperfilms and exposed for 7 days in x-ray cassettes.
(§2) Tissue standards for iodinated compounds (Amersham) were used for this purpose.

[2] = molecular target: T2, Y2 receptors in normal breast (Homo sapiens, UniProt P49146); experiment: NPY receptor autoradiography, displacement of 125I-PYY in adjacent normal breast sections; assay type: binding; conditions: FIG. 1; surrounding normal breast expressing predominantly Y2
T2 construct: Twenty-μm thick cryostat sections of the tissue samples were processed for NPY receptor autoradiography; from tissue; host or cells: human normal breast tissue adjacent to carcinoma, cryostat sections
T2 sequence (P49146 1-381): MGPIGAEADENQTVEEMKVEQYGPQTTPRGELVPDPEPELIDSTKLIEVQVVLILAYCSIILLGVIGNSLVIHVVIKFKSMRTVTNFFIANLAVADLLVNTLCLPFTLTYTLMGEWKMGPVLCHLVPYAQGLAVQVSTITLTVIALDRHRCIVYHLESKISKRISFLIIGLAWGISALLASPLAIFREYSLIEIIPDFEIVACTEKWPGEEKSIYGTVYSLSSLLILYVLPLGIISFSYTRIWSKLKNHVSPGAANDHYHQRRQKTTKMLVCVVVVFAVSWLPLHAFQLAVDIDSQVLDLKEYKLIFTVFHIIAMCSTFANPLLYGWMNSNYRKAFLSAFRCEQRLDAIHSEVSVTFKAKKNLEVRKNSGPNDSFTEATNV
Method: For autoradiography, tissue sections were mounted on precleaned microscope slides and stored at −20° C. for at least 3 days to improve adhesion of the tissue to the slide. […] The slides were incubated at room temperature with the radioligand for 120 min.
In selected cases, displacements with a single concentration (25 nM) of each of the above mentioned peptides were performed.
as §1, §2

[3] = molecular target: T3, NPY receptors in breast carcinoma (Homo sapiens, UniProt P25929); experiment: NPY receptor autoradiography, total binding of radioligands to breast carcinoma
T3 construct: Twenty-μm thick cryostat sections of the tissue samples were processed for NPY receptor autoradiography; from tissue; host or cells: human breast carcinoma cryostat sections
T3 sequence (P25929 1-384): T1 sequence (P25929 1-384)
Method: (§3) Twenty-μm thick cryostat sections of the tissue samples were processed for NPY receptor autoradiography as described in detail previously for other peptide receptors (Reubi, J. C. et al. Cancer Res. 50, 5969-5977 (1990)). One radioligand used was ^125I-PYY (2'000 Ci/mmol; […], Switzerland), known to specifically label NPY receptors. For autoradiography, tissue sections were mounted on precleaned microscope slides and stored at -20° C. for at least 3 days to improve adhesion of the tissue to the slide. Sections were then processed according to Dumont et al. (J. Neurosci. 13, 73-86 (1993)). They were first preincubated in 119 mM NaCl, 3.2 mM KCl, 1.19 mM KH2PO4, 1.19 mm MgSO4, 25 mM NaHCO3, 2.53 mM CaCl2×2H2O and 10 mM D-glucose, pH 7.4 (preincubation solution), for 60 min at room temperature. The slides were then incubated in a solution containing the same medium as the preincubation solution in which the following compounds were added: 0.1% bovine serum albumin, 0.05% bacitracin, pH 7.4, and the radioligand, at approximate concentration of 22 pM ^125I-PYY. The slides were incubated at room temperature with the radioligand for 120 min. On completion of the incubation, the slides were washed four times for 5 min each in ice-cold preincubation solution, pH 7.4. They were rinsed twice in ice-cold distilled water, and then dried under a stream of cold air at 4° C., apposed to ^3H-Hyperfilms and exposed for 7 days in x-ray cassettes. […] Int 21, 45-67 (1992); […] Neurosci. 76, 215-224 (1997)). Identical experimental conditions as mentioned for ^125I-PYY were used. The autoradiograms were quantified using a computer-assisted image processing system, as described previously (Reubi et al. (1990), supra; […] & Reubi Can. Res. 59,1152-1159 (1999)). Tissue standards for iodinated compounds (Amersham) were used for this purpose. A tissue was defined as receptor-positive when the optical density measured in the total binding section was at least twice that of the nonspecific binding section (in the presence of 10^-7 mol/L PYY).

[4] = test system: NPY receptors in normal breast; experiment: NPY receptor autoradiography, total binding of radioligands to adjacent normal breast; set-up: species or system human; conditions: FIG. 1
Method: as §3

## C[C@H](N)C(=O)NCC(=O)N[C@H]1CSSC[C@@H](C(=O)O)NC(=O)[C@H](CO)NC(=O)[C@H]([C@@H](C)O)NC(=O)[C@H](Cc2ccccc2)NC(=O)[C@H]([C@@H](C)O)NC(=O)[C@H](CCCCN)NC(=O)[C@H](Cc2c[nH]c3ccccc23)NC(=O)[C@H](Cc2ccccc2)NC(=O)[C@H](Cc2ccccc2)NC(=O)[C@H](CC(N)=O)NC(=O)[C@H](CCCCN)NC1=O [Somatostatin]
[1]
  displacement of 125I-PYY, competition curves: inactive

## PYY(13-36)
[1]
  displacement of 125I-PYY, competition curves: not

## PYY: member of the NPY family of 36 amino acid long peptides [peptide YY]
[1]
  displacement of 125I-PYY, competition curves: high affinity displacement

## [Leu^31, Pro^34]-NPY
[2]
  affinity in surrounding breast (rank order of potency): low affinity

## [Leu^31, Pro^34]-PYY
[2]
  affinity in surrounding breast (rank order of potency): low affinity
[1]
  displacement of 125I-PYY, competition curves: completely displace the radiotracer with high affinity; also recorded: high affinity displacement

## ^125I-PYY
[3]; FIG. 1
  labeling of tumor by radioligand (total binding): strong labeling
[4]
  labeling of breast by radioligand (total binding): strong labeling

## ^125I-PYY(3-36)
[3]; FIG. 1
  labeling of tumor by radioligand (total binding): not seen
[4]
  labeling of breast by radioligand (total binding): labeled

## ^125I-[Leu^31, Pro^34]-PYY
[3]; FIG. 1
  labeling of tumor by radioligand (total binding): strongly labeled
[3]; FIG. 1, Pro^34]-PYY
  labeling of tumor by radioligand (total binding): labeled
[4]
  labeling of breast by radioligand (total binding): not or only very weakly visible
